Broadly, the melting point is the temperature of the solid-liquid transition. Broadly, the IC50 is the point on the concentration scale where inhibition reaches its midpoint.

In data set [1] the target is T1, human H3 receptor (Homo sapiens, UniProt Q9Y5N1).
T1 construct: purchased Perkin Elmer ES-392-M400UA; host or cells: CHO-K1 cells (recombinant expression), membrane preparation
In words: [35S]GTP-γ-S Binding Test. Format: biochemical. As to conditions: 50% inhibition of [35S]GTP-γ-S (0.2 nM) binding in presence of 10 nM R(−)-α-methylhistamine; human H3 receptor membrane preparation. As to the method:
The same human H3 receptor membrane preparation as used in Test Example 1 (7.5 μg protein/200 μl), 3 μM GDP, 10 nM R(−)-α-methylhistamine and a test compound were reacted at 30° C. for 20 minutes. After completion of the reaction, [^35S]GTP-γ-S (0.2 nM) was added and reacted for an additional 30 minutes. After completion of the reaction, the reaction mixture was subjected to suction filtration through a glass filter (GF/C). The glass filter was washed three times with 20 mM HEPES washing solution (pH 7.4) containing 100 mM sodium chloride and 3 mM magnesium chloride. After washing, the glass filter was dried and a scintillator was added thereto, followed by measurement of radioactivity on the filter using a liquid scintillation counter. Binding of [^35S]GTP-γ-S in the absence of R(−)-α-methylhistamine was defined as non-specific binding, and the difference between total binding in the presence of R(−)-α-methylhistamine and non-specific binding was defined as specific binding of [^35S]GTP-γ-S. Fixed concentrations of [^35S]GTP-γ-S (0.2 nM) and R(−)-α-methylhistamine (10 nM) were reacted under the above conditions with each test drug at various concentrations to obtain an inhibition curve. The inhibition curve was used to determine the concentration (IC50) of each test drug required for 50% inhibition of [^35S]GTP-γ-S binding.
In general terms: GTPγS resists hydrolysis and so accumulates on activated G proteins.

Data set [2] deals with T1, human H3 receptor. Kind of data set: H3 Receptor Binding Test. The note with it: 50% inhibition of R(−)-α-methyl[3H]histamine (1 nM) binding; membrane preparation of human H3 receptor-expressing CHO-K1 cells.

Each structure is given as a SMILES string. Some results are limits rather than exact numbers.

T1 sequence (Q9Y5N1 whole entry): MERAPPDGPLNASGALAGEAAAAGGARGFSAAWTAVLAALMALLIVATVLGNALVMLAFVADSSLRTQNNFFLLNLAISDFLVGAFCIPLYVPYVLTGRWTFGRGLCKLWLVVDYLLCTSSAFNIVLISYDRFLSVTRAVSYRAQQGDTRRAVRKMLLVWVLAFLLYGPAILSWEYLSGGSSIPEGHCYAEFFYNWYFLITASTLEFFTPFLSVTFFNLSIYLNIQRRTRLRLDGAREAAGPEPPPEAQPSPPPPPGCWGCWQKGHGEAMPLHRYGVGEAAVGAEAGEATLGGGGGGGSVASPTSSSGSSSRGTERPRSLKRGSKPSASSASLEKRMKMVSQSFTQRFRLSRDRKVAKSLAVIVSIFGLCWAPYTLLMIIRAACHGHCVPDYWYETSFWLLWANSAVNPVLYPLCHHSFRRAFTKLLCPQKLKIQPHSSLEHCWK

`Cl.O=C1CCc2cc(OC3CCN(C4CCC4)CC3)ccc2N1c1ccc(F)cc1`: the melting point is above 250 °C. `C[C@@H]1CCCN1CCCOc1ccc2c(c1)CCC(=O)N2c1ccc(F)cc1` [Compound No. 6, 1-(4-fluorophenyl)-6-{3-[(2R)-2-methylpyrrolidin-1-yl]propoxy}-3,4-dihydroquinolin-2(1H)-one]: the IC50 on human H3 receptor [1] was 0.28 nM; at human H3 receptor [2], 1.1 nM.

For `C[C@@H]1CCCN1CCCOc1ccc2c(c1)CCC(=O)N2c1ccc(CN(C)C)cc1` [Compound No. 12, 1-{4-[(dimethylamino)methyl]phenyl}-6-{3-[(2R)-2-methylpyrrolidin-1-yl]propoxy}-3,4-dihydroquinolin-2(1H)-one], the IC50 came out at 0.21 nM at human H3 receptor [1] and 0.68 nM at human H3 receptor [2]. With `C[C@@H]1CCCN1CCCOc1ccc2c(c1)CCC(=O)N2c1ccc(C(=O)N(C)C)cc1` [Compound No. 13, N,N-dimethyl-4-[6-{3-[(2R)-2-methylpyrrolidin-1-yl]propoxy}-2-oxo-3,4-dihydroquinolin-1(2H)-yl]benzamide], the concentration for half-maximal inhibition (IC50) stood at 0.62 nM on human H3 receptor [1] and 8.3 nM at human H3 receptor [2]. In the same order, the values of `O=C1CCc2cc(OC3CCN(C4CCC4)CC3)ccc2N1c1cnc2ccccc2c1` [Compound No. 58, 6-[(1-cyclobutylpiperidin-4-yl)oxy]-3,4-dihydro-2H-1,3′-biquinolin-2-one] are 0.4 nM and 1.6 nM. The like results for `O=C1CCc2cc(OC3CCN(C4CCC4)CC3)ccc2N1c1ccc(F)cc1` [Compound No. 60, 6-[(1-cyclobutylpiperidin-4-yl)oxy]-1-(4-fluorophenyl)-3,4-dihydroquinolin-2(1H)-one] were, in that order, 0.23 nM and 0.8 nM. In the same order, the values of `O=C1CCc2cc(OC3CCN(C4CCC4)CC3)ccc2N1c1cccc(F)c1` [Compound No. 69, 6-[(1-cyclobutylpiperidin-4-yl)oxy]-1-(3-fluorophenyl)-3,4-dihydroquinolin-2(1H)-one] are 0.2 nM and 0.65 nM. As to `O=C1CCc2cc(OC3CCN(C4CCC4)CC3)ccc2N1c1cncc(F)c1` [Compound No. 71, 6-[(1-cyclobutylpiperidin-4-yl)oxy]-1-(5-fluoropyridin-3-yl)-3,4-dihydroquinolin-2(1H)-one], the IC50 at human H3 receptor [1] is 0.26 nM; on human H3 receptor [2] it was 1.4 nM. For `O=C1CCc2cc(OC3CCN(C4CCC4)CC3)ccc2N1c1ccccc1` [Compound No. 72, 6-[(1-cyclobutylpiperidin-4-yl)oxy]-1-phenyl-3,4-dihydroquinolin-2(1H)-one], the IC50 is 0.16 nM at human H3 receptor [1] and 0.6 nM at human H3 receptor [2]. In the same order, the values of `N#Cc1ccc(N2C(=O)CCc3cc(OC4CCN(C5CCC5)CC4)ccc32)cc1` [Compound No. 73, 4-{6-[(1-cyclobutylpiperidin-4-yl)oxy]-2-oxo-3,4-dihydroquinolin-1(2H)-yl}benzonitrile] are 0.23 nM and 1 nM.
